Measured values published in patent publication US20060276414A1, “Use of compositions comprising an estrogenic component for the treatment and prevention of musculoskeletal pain” (priority 2003, published 2006).

Key:
[1] = tested on: early breast cancer in postmenopausal women; details: 9366 patients; cited from earlier work
[2] = tested on: musculoskeletal pain in postmenopausal breast cancer patients; assay: Example 2: placebo-controlled cross-over study, postmenopausal breast cancer patients (stage I or II) on estrogen suppressant therapy; assay type: in vivo, human patients; details: for average musculoskeletal pain sensation value during treatment weeks, vs placebo: 4 mg/day oral estetrol, 6 weeks
Source text: 20 postmenopausal patients are recruited that have breast cancer in clinical staging I or II, are adequately being treated surgically, chemotherapeutically and/or radiotherapeutically, show estrogen receptor positive tumour histology and do no have contraindications for steroid therapy, are on treatment with either an anti-estrogen or an aromatase inhibitor for at least three months and suffer from musculoskeletal pain complaints (defined as skeletal pain, pain in the legs, arms or back). Furthermore, during the screening phase other diagnoses, such as rheumatoid arthritis and/or other skeletal diseases or joint diseases, are excluded.
(§1) The patients participate in a clinical study with a duration of 15 weeks and are randomized as follows:
(§2) Patients continue with the anti-estrogen treatment that they have been receiving previously during the entire period of the study and receive additional daily oral treatment with 4 mg estetrol or a placebo for six weeks. 5 patients start with 4 mg/day oral estetrol treatment and 5 patients with placebo treatment. After a wash-out period of 3 weeks, during which anti-estrogen treatment continues and no additional estetrol or placebo treatment is given, study treatment is reinitiated. Placebo-receiving patients are subsequently treated with 4 mg/day oral estetrol and estetrol-receiving patients with placebo for 6 weeks after which the study is terminated.
as §2, with “aromatase inhibitor” for “anti-estrogen”
The subjects visit the study center once weekly, during which the patients are closely monitored by their study physician. During all visits, thorough physical examinations are performed, blood samples are retrieved and a questionnaire, specifically addressing musculoskeletal pain sensation on a graded scale and climacteric complaints, is completed. Primary endpoints in the study are improvement of the musculoskeletal pain and reduction of climacteric complaints, whereas secondary endpoints are clinical tumour progression and changes of tumour markers.

[3] = tested on: bone resorption, hot flushing and vaginal cornification; assay: agonistic models of in vivo estrogenicity (previous studies); details: data from previous studies
Procedure: The doses of EE and E4 were based on data from previous studies, showing equipotency of 0.025 mg/kg/day EE and 0.5 mg/kg/day E4 in agonistic models of preventing bone resorption, prevention of hot flushing and vaginal comification.

[4] = tested on: tumour gene expression profile and musculoskeletal pain in postmenopausal breast cancer patients; assay: Example 4: placebo-controlled cross-over study with fine needle aspiration, postmenopausal breast cancer patients (at least stage III); assay type: in vivo, human patients; details: for average musculoskeletal pain sensation value during treatment weeks, vs placebo: 6 weeks
Source text: 20 postmenopausal patients are recruited that have breast cancer in at least clinical staging […], have a palpable macroscopic tumour mass, show estrogen receptor positive tumour histology, have already been treated with either an anti-estrogen or an aromatase inhibitor for at least three months, do no have contraindications for steroid therapy and suffer from musculoskeletal pain complaints (defined as skeletal pain, pain in the legs, arms or back). Furthermore, during the screening phase other diagnoses, such as rheumatoid arthritis and/or other skeletal diseases or joint diseases, are excluded.
as §1
as §2, with “treatment” for “treatment that”
as §2, with “aromatase inhibitor” for “anti-estrogen”, “treatment” for “treatment that”
The patients visit the study center once weekly, during which the patients are closely monitored by their study physician. During all visits, thorough physical examinations are performed, blood samples are retrieved and a questionnaire, specifically addressing musculoskeletal pain sensation on a graded scale, is completed. Furthermore, three fine needle aspirations (FNA) from the macroscopic tumour are obtained at baseline, during the wash-out and at the last visit after study week 15, respectively. Additionally at the same time points and for all locations with macroscopic palpable tumour activity, tumour sizes are scored. Tumour gene expression profiles are determined by using a FNA-cDNA microarray as described by Sotiriou et al. (Breast Cancer Research 2002,4:R3). Primary endpoints in the study are changes of the gene expression profile, improvement of the musculoskeletal pain and reduction of climacteric complaints, whereas secondary endpoints are clinical tumour progression and changes of tumour markers.

[5] = tested on: DMBA-induced mammary tumours; assay: 7,12-dimethyl-benz(a)anthracene (DMBA)-induced tumour model in rats; assay type: in vivo, Sprague-Dawley rats
Procedure: In order to assess the effect of the present estrogenic substances on tumours, estetrol was tested in the 7,12-dimethyl-benz(a)anthracene (DMBA)-induced tumour model in rats. This model, originally developed by Huggins et al.,1961 (Nature,19, 204-207), has been widely used and is a generally accepted model with predictive value for anti-tumour agents in humans. The growth of the DMBA-induced tumours is dependent on endogenously produced estradiol or exogenously administered estrogens and prolactin (Sylvester et al., 1982, Cancer Research, 42, 4943-4947).
Eighty-four female Sprague-Dawley rats (Harlan, The Netherlands) were group housed, maintained in a 12-hr light/dark environment, and fed a Soya Free Diet (SDS England) and water ad libitum. Animals were weighed on a weekly basis. One week prior to induction of mammary carcinoma, 12 animals (aged 43 days) were surgically castrated via removal of the ovaries. At the age of 50 days, all animals were administered a single oral dose of 16 mg DMBA to induce tumour development. Animals were subsequently allocated to one of seven groups (n=12), receiving placebo or treatment as follows:. • Group 1 animals received placebo oral treatment with 3.0 ml/kg/day vehicle (20% wt/vol solution of hydroxypropyl-beta-cyclodextrin in water); • Group 2 surgically castrated animals received placebo treatment with 3.0 ml/kg/day vehicle; • Group 3 animals received the anti-estrogen tamoxifen given orally at a single daily dose of 3 mg/kg; • Group 4 animals received ethinylestradiol (EE) orally at a single daily dose of 0.025 mg/kg; • Group S animals received ethinylestradiol (EE) orally at a single daily dose of 0.125 mg/kg; • Group 6 animals received estetrol (E4) orally at a single daily dose of 0.5 mg/kg; and • Group 7 animals received estetrol (E4) orally at a single daily dose of 2.5 mg/kg.
During the treatment period of 8 weeks, the emergence of palpable tumours and number of tumours were determined weekly. At 8 weeks, at necropsy, final measurements were taken. The number of tumours at necropsy are depicted in FIG. 1.

[6] = tested on: musculoskeletal pain in premenopausal breast cancer patients; assay: Example 3: placebo-controlled cross-over study, premenopausal breast cancer patients on estrogen suppressant therapy; assay type: in vivo, human patients; details: premenopausal patients with ovarian ablation, estetrol plus estrogen suppressant
[7] = tested on: DMBA-induced mammary tumours; details: literature (Hollingsworth et al., 1998); cited from earlier work
[8] = 4 mg/day oral estetrol added to estrogen suppressant therapy

CC(C)(C#N)c1cc(Cn2cncn2)cc(C(C)(C)C#N)c1 [anastrozole]
disease-free survival and incidence of contralateral breast cancer, compared with tamoxifen [1]: significantly superior

C[C@]12CC[C@@H]3c4ccc(O)cc4CC[C@H]3[C@@H]1[C@@H](O)[C@@H](O)[C@@H]2O [estetrol, 1,3,5 (10)-estratrien-3,15α,16α,17β-tetrol]
climacteric complaints (questionnaires) [2, 8]: overall reduction | average musculoskeletal pain sensation value during treatment weeks, vs placebo ([2]; concomitant anti-estrogen therapy): significantly lower | average musculoskeletal pain sensation value during treatment weeks, vs placebo ([2]; concomitant aromatase inhibitor therapy): significantly lower | clinical tumour progression and tumour markers ([2]; during treatment with estetrol, vs baseline and recurrency data for stages I and II): do not show significant adverse changes | equipotency with EE in preventing bone resorption, prevention of hot flushing and vaginal cornification ([3]; 0.5 mg/kg/day E4 vs 0.025 mg/kg/day EE): equipotency | equipotency with EE in in vivo estrogenicity (preventing bone resorption, hot flushing, vaginal cornification) ([3]; 2.5 mg/kg/day E4 vs 0.125 mg/kg/day EE): equipotency | climacteric complaints (questionnaires) [4, 8]: overall reduction | molecular profile on concomitant administration with an anti-estrogen or an aromatase inhibitor ([4]; 4 mg/day oral estetrol plus anti-estrogen or aromatase inhibitor): synergistically produces a more beneficial molecular profile | average musculoskeletal pain sensation value during treatment weeks, vs placebo ([4]; 4 mg/day oral estetrol, concomitant anti-estrogen therapy): significantly lower | average musculoskeletal pain sensation value during treatment weeks, vs placebo ([4]; 4 mg/day oral estetrol, concomitant aromatase inhibitor therapy): significantly lower | changes in the gene-expression profile involved in regulation and deregulation of breast tissue proliferation ([4]; 4 mg/day oral estetrol, FNA-cDNA microarray): favourable association | tumour progression / sizes of macroscopic tumours ([4]; additional estetrol treatment, vs baseline and progression data for stages III and more): tumours progress more slowly or sizes of macroscopically tumours decline | preventing growth of DMBA-induced tumours, compared with tamoxifen ([5]; E4 2.5 mg/kg/day orally vs tamoxifen 3 mg/kg/day orally): as effective as tamoxifen | mammary tumour development (number of tumours at necropsy) ([5]; E4 2.5 mg/kg/day orally, 8 weeks, DMBA-treated female rats): markedly suppressed mammary tumour development | clinical outcome (musculoskeletal pain) compared with postmenopausal patients [6]: similar-to the clinical outcome reported for postmenopausal breast cancer patients

CC/C(=C(\c1ccccc1)c1ccc(OCCN(C)C)cc1)c1ccccc1 [tamoxifen, reference compound]
development of mammary tumours (number of tumours at necropsy) ([5]; tamoxifen 3 mg/kg/day orally, 8 weeks, DMBA-treated female rats): inhibiting the development of mammary tumours | anti-tumour treatment in the DMBA model [7]: effective anti-tumour treatments
